Measured values: US20210147472A1, “SOLID FORMS AND FORMULATIONS COMPRISING A GLUCOCORTICOID RECEPTOR ANTAGONIST AND USES THEREOF” (ORIC Pharmaceuticals, Inc., priority 2018, published 2021)
≈ marks a conversion by molar mass, not a printed value.

Legend:
Format in all cases: physicochemical
[1] = Solubility screen of Compound 1 in lipids; details: oil or lipid
[2] = Solubility of Compound 1 (freebase form) in dosing vehicles, HPLC; details: shaken five days, 25° C. (40° C. semi-solid, 50° C. solid vehicles)
Protocol: This study was carried out to evaluate the solubility of Compound 1 (freebase form) in a variety of dosing vehicles to identify excipient classes that maximize drug solubility. A total of 20 vehicles which were selected and agreed with the customer were used in this study. Compound 1 was added to approximately 1 gram of the excipients. After the initial addition of Compound 1, the mixtures were shaken in a temperature-controlled vortex mixer at 25° C. (40° C. for vehicles that were semi-solid at room temperature and 50° C. for solid vehicles) then examined for solid residues. If dissolution was observed during the mixing time, additional Compound 1 was added until no further dissolution was observed. After shaking for a total of five days, the suspensions were filtered using a centrifuge tube with 0.45 PVDF membrane filter (Millipore Durapore®). The filtrate was weighed in to a 25-mL volumetric flask and diluted to volume with the diluent solution (90:10% v/v IPA/Acetonitrile) for a determination of Compound 1 concentration via High Performance Liquid Chromatography (HPLC). Residual solids were inspected by PXRD to determine the solid form. Quantitative determination of the amount of API dissolved was performed using reverse-phase HPLC analyses on an Agilent 1290 Infinity II UHPLC system equipped with a Diode Array Detector (DAD). Agilent 1290 Infinity II UHPLC system equipped with a Diode Array Detector (DAD) Mobile Phase A: 0.05% Formic acid in water Mobile Phase B: 0.05% Formic acid in acetonitrile

[3] = Effect of stabilizers on stability of Compound 1 capsule matrix (A1 formation)
Protocol: Two antioxidants, α-tocopherol and ascorbyl palmitate, were evaluated to minimize the oxidation. Use of α-tocopherol alone improved Compound 1 stability as measured by the formation of A1 (see Table 1). When ascorbyl palmitate was combined with α-tocopherol, further stability improvement was observed. Table 14 summarizes the compositions of the Compound 1 capsule matrix evaluated and Table 15 summarizes the effect of α-tocopherol and ascorbyl palmitate as stabilizers on the stability of Compound 1.

CC(C)N(C)c1ccc([C@H]2C[C@@]3(C)[C@@H](CC[C@@]3(O)C#CC(C)(C)C)[C@@H]3CCC4=CC(=O)CC[C@@H]4[C@H]32)cc1 [Compound 1, (8R,9S,10R,11S,13S,14S,17S)-17-(3,3-dimethylbut-1-yn-1-yl)-17-hydroxy-11-(4-(isopropyl(methyl)amino)phenyl)-13-methyl-1,2,6,7,8,9,10,11,12,13,14,15,16,17-tetradecahydro-3H-cyclopenta[a]phenanthren-3-one]
Solubility ([1]; in Capmul MCM (Glyceryl monocaprylcaprate, Type I, NF)): < 40 mg/mL
Solubility ([1]; in Capryol 90 (Propylene glycol monocaprylate, Type II, NF)): 40 mg/mL (≈ 79.7 mM)
Solubility ([1]; in Capryol 90 + 5% Poloxamer P188 USP, particulate seen after 24 hours): 50 mg/mL
Solubility ([1]; in Kolliphor EL (PEG-35 Castor Oil USP)): < 40 mg/mL
Solubility ([1]; in Labrasol ALF (Caprylocaproyl Polyoyl-8 glycerides, NF)): 40 mg/mL (≈ 79.7 mM)
Solubility ([1]; in Maisine CC (Caprylic/capric triglyceride NF)): < 40 mg/mL
Solubility ([1]; in Tween 20 (Polysorbate 20 NF)): < 40 mg/mL
Solubility ([1]; in Tween 80 (polysorbate 80 NF)): < 40 mg/mL
Solubility ([2]; in Caprylocaproyl polyoxyl-8 glycerides): 42.4 mg/g
Solubility ([2]; in Decanoic acid (Capric acid)): 201.0 mg/g
Solubility ([2]; in Diethyl glycol monoethyl ether): 130.3 mg/g
Solubility ([2]; in Glycerin): 0.1 mg/g
Solubility ([2]; in Glyceryl caprylate/caprate): 79.0 mg/g
Solubility ([2]; in Glyceryl monolinoleate): 41.2 mg/g
Solubility ([2]; in Lauroyl polyoxyl-6 glycerides): 40.8 mg/g
Solubility ([2]; in Lauroyl polyoxyl-32 glycerides): 39.2 mg/g
Solubility ([2]; in Medium chain triglycerides): 26.1 mg/g
Solubility ([2]; in Octanoic acid (Caprylic acid)): 199.2 mg/g
Solubility ([2]; in PEG 400): 14.5 mg/g
Solubility ([2]; in Polyethylene glycol monostearate): 34.2 mg/g
Solubility ([2]; in Polyethylene glycol sorbitan monolaurate): 26.1 mg/g
Solubility ([2]; in Propylene Glycol): 12.1 mg/g
Solubility ([2]; in Propylene glycol monocaprylate): 139.6 mg/g
Solubility ([2]; in Propylene glycol monolaurate): 68.4 mg/g
Solubility ([2]; in Sorbitan Monolaurate): 34.1 mg/g
Solubility ([2]; in Sorbitan monooleate): 19.5 mg/g
Solubility ([2]; in Triacetin): 21.9 mg/g
Solubility ([2]; in Vitamin E TPGS): 8.3 mg/g
Formation of A1 ([3]; combination of α-tocopherol and ascorbyl palmitate as stabilizers): substantially suppresses
Formation of primary oxidative N-demethylation product (A1) ([3]; in caprylic acid, extended stability, after about 4-6m): greater than 4%
Compound 1 stability as measured by the formation of A1 ([3]; use of α-tocopherol alone): improved
